Patent US20240398844A1, “PHENYLCOUMARINS FOR TREATING INFLAMMATION” (Ohio State Innovation Foundation, priority 2021, published 2024)
“Also recorded” adds a separate entry of the source.

Key:
NFκB p65 = test: Diabetic zebrafish Western blot, NFκB expression; format: in vivo; details: for NFκB p65 expression (Western blot band density): diabetic zebrafish, 10, 5, and 1 μM (rosiglitazone 10 μM), FIG. 10
Procedure: (§1) Alloxan-induced diabetic zebrafish were treated with compounds for immunoblot to validate the newly developed animal model, determine the antidiabetic potential of natural product leads, evaluate glucose metabolism, and discover possible mechanisms of action.
(§2) At 72 hpf, naturally dechorionated zebrafish were sorted into a 24-well microplate with 10 fish per well. Type 2 diabetes was induced with the diabetogenic agent alloxan at a dose of 0.5 mg/mL in system water for 3 hours. […] After 3 hours of treatment with natural product samples, 10 mg/mL D-glucose was administered in system water for 30 minutes, followed by 1 hour in fresh system water to metabolize the glucose and natural product leads. Upon completion of the 4-phase treatment cycle, zebrafish treatment groups were snap frozen into individual microcentrifuge tubes on dry ice, stored overnight at −80° C., thawed, homogenized with 2 μL PBS per animal, and centrifuged at 4° C. for 1 hour at 17,000 rpm. Protein content of homogenate supernatant was determined using the Pierce BCA Protein Assay kit (Pierce Biotechnology) and bovine serum albumin (BSA) standard curve. Absorbance of protein solutions from zebrafish homogenates and serial dilutions of the BSA standard were measured at 544 nm, using a FLUOstar Optima plate reader (BMG Labtechnologies GmbH, Inc.). Homogenates were analyzed by Western blot. Equal amounts of protein (20 μg) were combined with 4× lithium dodecyl sulphate (LDS) loading buffer (NuPAGE, Life Technologies, Carlsbad, CA, USA), brought to volume (15 μL) with PBS, and heated to 95° C. for 5 minutes. Proteins were resolved using NuPAGE Bis-Tris 4-12% gradient sodium dodecyl sulfate polyacrylamide gel electrophoresis (SDS-PAGE) gels together with SeeBlue Plus2 Pre-Stained Standard Ladder (Life Technologies).
(§3) Electrophoresis was performed using NuPAGE MES SDS Running Buffer and XCell SureLock Mini-Cell Electrophoresis System (Life Technologies). Separated proteins were transferred from the gel to a polyvinylidene fluoride (PVDF) membrane using tris buffered saline with Tween-20 (TBST) buffer. The blots were blocked in 3% BSA in TBST and subsequently probed using primary antibodies (1:1000 in 1% BSA in TBST) against each target overnight (Table 1). The secondary, horseradish peroxidase (HRP) conjugated antibodies (1:2000) were obtained from Santa Cruz Biotechnology Inc., (Santa Cruz, CA, USA). Conjugated antibodies were detected using SuperSignal West Femto chemiluminescent substrate from Pierce Biotechnology. Western blots were visualized, and images captured using a luminometer and LumiAnalyst 3.0 software (Boehringer-Mannheim, Mannheim, Germany). Band density was quantified for proteins of interest using ImageJ Gel Analysis.
(§4) In the case of duplicate blots, the band density results were expressed in bar graphs as the mean±standard error of the mean (SEM) of two independent experiments. Due to the labor- and time-intensive aspect of Western blot analysis with multiple target proteins, a maximum of two independent immunoblot experiments were performed per compared sample set. […] Additionally, treatment groups were also evaluated versus the diabetic, untreated control group for significance by Student's f-test and indicated in the bar graphs with p values represented by *p<0.05, **p<0.01, and ***p<0.001. […]

HbA1C = test: Diabetic zebrafish Western blot, HbA1C expression; format: in vivo
Procedure: as §1, §2, §3, §4

[1] = Solubility in NMR solvents; format: physicochemical; details: CD3OD
Procedure: Solubility of the fractions was a challenge, and chloroform-d (CDCl3), […], methanol-d4 (CD3OD), dimethyl sulfoxide-d6, and water-d2 (D2O) (Cambridge Isotope Laboratories, Tewksbury, MA, USA) were all tried as solvents. […] Since there was only 1.5 mg of material, further purification and structure elucidation were not pursued.
Fraction 3 was most soluble in D2O, and at approximately 11 mg/mL, ^1H and ^13C NMR data were obtained in an effort to confirm the presence of an isopropyl ether derivative (40). However, solubility of fraction 3 continued to be problematic even in D2O. Further acquisition attempts with increased probe temperature (310 K) were no more successful at keeping the compound (40) in solution.

PEPCK = test: Diabetic zebrafish Western blot, PEPCK expression; format: in vivo; details: FIG. 8; for PEPCK expression, efficacy of lower doses: diabetic zebrafish, 5 and 1 μM; for PEPCK expression, dose dependence: diabetic zebrafish, 10, 5, and 1 μM
GLUT-4 = test: Diabetic zebrafish Western blot, GLUT-4 expression; format: in vivo; details: 10 μM, FIG. 5
Procedure: as §1
At 72 hpf, naturally dechorionated zebrafish were sorted into a 24-well microplate with 10 fish per well. Type 2 diabetes was induced with the diabetogenic agent alloxan at a dose of 0.5 mg/mL in system water for 3 hours. The incubation solution was changed to 0.01% DMSO in system water with compounds at concentrations of 20 μg/mL or […], respectively. After 3 hours of treatment with natural product samples, 10 mg/mL D-glucose was administered in system water for 30 minutes, followed by 1 hour in fresh system water to metabolize the glucose and natural product leads. Upon completion of the 4-phase treatment cycle, zebrafish treatment groups were snap frozen into individual microcentrifuge tubes on dry ice, stored overnight at −80° C., thawed, homogenized with 2 μL PBS per animal, and centrifuged at 4° C. for 1 hour at 17,000 rpm. Protein content of homogenate supernatant was determined using the Pierce BCA Protein Assay kit (Pierce Biotechnology) and bovine serum albumin (BSA) standard curve. Absorbance of protein solutions from zebrafish homogenates and serial dilutions of the BSA standard were measured at 544 nm, using a FLUOstar Optima plate reader (BMG Labtechnologies GmbH, Inc.). Homogenates were analyzed by Western blot. Equal amounts of protein (20 μg) were combined with 4× lithium dodecyl sulphate (LDS) loading buffer (NuPAGE, Life Technologies, Carlsbad, CA, USA), brought to volume (15 μL) with PBS, and heated to 95° C. for 5 minutes. […]
Electrophoresis was performed using NuPAGE MES SDS Running Buffer and XCell SureLock Mini-Cell Electrophoresis System (Life Technologies). […] Conjugated antibodies were detected using SuperSignal West Femto chemiluminescent substrate from Pierce Biotechnology. […] Band density was quantified for proteins of interest using ImageJ Gel Analysis. […]

[2] = diabetic zebrafish, 10, 5, and 1 μM (rosiglitazone 10 μM), duplicate blots, FIG. 7

COc1cc(O[C@@H]2OCC(O)(CO[C@@H]3OC(CO)[C@@H](O)C(O)C3O)C2O)c2c(-c3ccc(OC(C)C)c(O)c3)cc(=O)oc2c1 (single isomer, unassigned) [Compound 40]
NFκB p65 expression (Western blot band density) (NFκB p65): significantly inhibit NFκB expression versus the untreated, diabetic control | HbA1C expression (Western blot band density) (HbA1C; [2]): lacking a dose-dependent response | solubility (relative) [1]: even less soluble than 24 | PEPCK expression, efficacy of lower doses (PEPCK): not effective | PEPCK expression, dose dependence (PEPCK): dose-dependent increase in PEPCK expression; also recorded: slightly less active than the parent compound

COc1cc(O[C@@H]2O[C@H](CO[C@@H]3OCC(O)(CO)[C@H]3O)[C@@H](O)[C@H](O)[C@H]2O)c2c(-c3ccc(O)c(O)c3)cc(=O)oc2c1 (stereo partly drawn) [Compound 24, 5-O-[β-D-apiofuranosyl-(1→6)-β-D-glucopyranosyl]-7-methoxy-3′,4′-dihydroxy-4-phenylcoumarin]
NFκB expression (Western blot) (NFκB p65; diabetic zebrafish, 10 μM, FIG. 5): excellent inhibition of NFκB expression | NFκB p65 expression (Western blot band density) (NFκB p65): opposite dose-dependent effect | HbA1C expression (Western blot band density) (HbA1C; diabetic zebrafish, 10 μM, library screen, FIG. 2 / FIG. 11): most effective in reducing glycated hemoglobin | HbA1C expression (Western blot band density) (HbA1C; [2]): reduced glycated hemoglobin levels in comparison to rosiglitazone | GLUT-4 expression (Western blot) (GLUT-4): strong GLUT-4 expression | PEPCK expression, efficacy of lower doses (PEPCK): not effective | PEPCK expression, dose dependence (PEPCK): dose-dependent increase in PEPCK expression
